Drawing on patent US12281149B2, “Modulators of G-protein coupled receptors” (priority 2021, dated 2025), this text covers EC50 and Emax for five molecules.

*1 amine or outer side, *2 acyl side, *3 side chain or, on linkers, in order; H or OH if unused. Where a SMILES comes first, the peptide text is derived from it. Side-chain parts run from the residue outwards. [ ]: non-standard residue; d: D form. The star is where a group is joined. Isobutyryl(2-(3-CN-5-F-Ph)) = CC(C)(C(=O)*)c1cc(F)cc(C#N)c1; C20 diacid = O=C(O)CCCCCCCCCCCCCCCCCCC(=O)*; αMePhe(2-F) = C[C@](N)(Cc1ccccc1F)C(=O)O; γGlu = O=C(O)[C@H](CCC(=O)[*:2])N[*:1]; X39 = CCC(CC)(C(=O)*)c1ccc(Cl)cc1; X77 = CC(C(=O)*)c1cc(F)cc(F)c1; X60 = O=C(C1(c2cccnc2)CCCC1)*; AEEA = NCCOCCOCC(=O)O; Aib = CC(C)(N)C(=O)O; GABA = NCCCC(=O)O; βAla = NCCC(=O)O A value given as a limit tells only on which side of the number the result lay.

What all share (type): cell-based
In assay [1] the target is T1, GIP receptor (Homo sapiens, UniProt P48546).
T1 sequence (P48546 22-466): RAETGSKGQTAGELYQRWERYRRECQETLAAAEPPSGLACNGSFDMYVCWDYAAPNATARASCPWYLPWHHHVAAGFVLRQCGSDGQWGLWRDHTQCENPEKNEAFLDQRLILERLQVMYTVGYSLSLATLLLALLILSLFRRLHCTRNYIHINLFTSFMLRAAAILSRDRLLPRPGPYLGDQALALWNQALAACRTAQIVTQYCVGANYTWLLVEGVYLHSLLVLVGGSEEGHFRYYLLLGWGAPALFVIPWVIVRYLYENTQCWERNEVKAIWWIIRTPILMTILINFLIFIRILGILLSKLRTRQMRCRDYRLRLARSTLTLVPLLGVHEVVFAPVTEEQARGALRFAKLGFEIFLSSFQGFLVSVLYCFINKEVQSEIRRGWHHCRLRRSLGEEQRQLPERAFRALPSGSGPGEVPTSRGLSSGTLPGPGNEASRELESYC
The assay is described as follows: PathHunter β-arrestin assay, GIP receptor. Details: host or cells: PathHunter CHO-K1 GIPR β-Arrestin Cell Line. The note with it: β-arrestin-2 recruitment, PathHunter CHO-K1 GIPR β-Arrestin Cell Line, 90 min at 37° C.; normalized to GIP; read-out: GIPR β Arrestin EC50. (Recruitment of arrestin is a read-out of receptor activation apart from second messengers.)
Method: β-arrestin-2 recruitment for GLP-1 receptor or GIP receptor was measured using the DiscoverX PathHunter Detection Kit and PathHunter® CHO-K1 GLPIR β-Arrestin Cell Line or PathHunter® CHO-K1 GIPR β-Arrestin Cell Line, respectively). Briefly, cells were grown in Ham's F12 Nutrient Mix with 10% FBS and lifted with Cell dissociation buffer, Enzyme free, PBS based (ThermoFisher). Harvested cells were pelleted and resuspended in Assay Complete Cell Plating Reagent 2 and 5000 cells per well were plated in tissue culture treated 384-well small volume white assay plates. Plates were then incubated at 37° C. and 5% CO2 overnight. The media was then replaced with fresh Assay Complete Cell Plating Reagent 2. Cells were then treated with 10 nl compound in DMSO using an ECHO 550 acoustic dispenser (Labcyte) in a 20-point dose response format in duplicate for 90 min at 37° C. The assay was then completed according to the manufacturer's instructions. Luminescence was measured using a Perkin Elmer Envision plate reader. Raw data was normalized to the maximum signal from GLP-1 or GIP (high) and DMSO (low). Dose response curves were analyzed using GraphPad Prism 9.0.

For assay [2], the target named is T2, GLP-1 receptor (Homo sapiens, UniProt P43220). The assay is described as follows: PathHunter β-arrestin assay, GLP-1 receptor. Details: host or cells: PathHunter CHO-K1 GLP1R β-Arrestin Cell Line. As to conditions: β-arrestin-2 recruitment, PathHunter CHO-K1 GLP1R β-Arrestin Cell Line, 90 min at 37° C.; normalized to GLP-1; read-out: GLP-1R β Arrestin EC50.
T2 sequence (P43220 24-463): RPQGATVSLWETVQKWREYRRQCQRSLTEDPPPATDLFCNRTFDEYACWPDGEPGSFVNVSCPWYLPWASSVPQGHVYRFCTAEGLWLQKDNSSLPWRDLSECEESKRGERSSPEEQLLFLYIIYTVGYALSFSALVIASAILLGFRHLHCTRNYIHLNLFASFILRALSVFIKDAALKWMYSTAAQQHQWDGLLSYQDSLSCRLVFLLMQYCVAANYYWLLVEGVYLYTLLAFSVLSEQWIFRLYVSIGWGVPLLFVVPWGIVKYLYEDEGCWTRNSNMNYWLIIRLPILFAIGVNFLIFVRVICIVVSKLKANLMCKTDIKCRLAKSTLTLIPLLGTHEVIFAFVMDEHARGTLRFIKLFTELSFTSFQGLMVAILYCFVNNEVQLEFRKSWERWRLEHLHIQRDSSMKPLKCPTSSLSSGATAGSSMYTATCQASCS
Assay [3] deals with T2, GLP-1 receptor. The assay is described as follows: HitHunter cAMP assay, GLP-1 receptor. As to conditions: for EC50: CHO cells stably expressing human GLP-1 receptor, cAMP accumulation, 30 min, read-out: EC50 GLP-1R; for Emax: CHO cells, cAMP, normalized to maximum signal from GLP-1 (high) and DMSO (low), read-out: Emax GLP-1R. On the technique in general: cAMP levels reflect the balance of adenylyl cyclase and phosphodiesterase activity.

Assay [4] concerns the target T1, GIP receptor. The assay is described as follows: HitHunter cAMP assay, GIP receptor. The note with it: for EC50: CHO cells stably expressing GIP receptor, cAMP accumulation, 30 min, read-out: EC50 GIP-1R; for Emax: CHO cells, cAMP, normalized to maximum signal from GIP (high) and DMSO (low), read-out: Emax GIP-1R.

For orientation: EC50 means the concentration at which the effect is half-maximal. As usually defined, the Emax is the size of the effect at its maximum, as opposed to the concentration needed. Turning to `CC[C@H](C)[C@H](NC(=O)[C@H](CO)NC(=O)[C@H](CCCCNC(=O)COCCOCCNC(=O)COCCOCCNC(=O)CC[C@H](NC(=O)CCCCCCCCCCCCCCCCCCC(=O)O)C(=O)O)NC(=O)[C@H](CC(=O)O)NC(=O)[C@H](CO)NC(=O)[C@@H](NC(=O)[C@H](Cc1ccccc1)NC(=O)[C@@H](NC(=O)CNC(=O)[C@H](CCC(=O)O)NC(=O)CCNC(=O)C(C)(C)c1cc(F)cc(C#N)c1)[C@@H](C)O)[C@@H](C)O)C(=O)N[C@@H](Cc1ccc(O)cc1)C(=O)N[C@@H](CC(C)C)C(=O)N[C@@H](CC(=O)O)C(=O)N[C@@H](CCCCN)C(=O)N[C@@H](CCC(N)=O)C(=O)N[C@@H](C)C(=O)N[C@@H](C)C(=O)NC(C)(C)C(=O)N[C@@H](CCC(=O)O)C(=O)N[C@@H](Cc1ccccc1)C(=O)N[C@H](C(=O)N[C@@H](CC(N)=O)C(=O)N[C@@H](Cc1c[nH]c2ccccc12)C(=O)N[C@@H](CC(C)C)C(=O)N[C@@H](CC(C)C)C(=O)N[C@@H](C)C(=O)NCC(=O)NCC(=O)N1CCC[C@H]1C(=O)N[C@@H](CO)C(=O)N[C@@H](CO)C(=O)NCC(=O)N[C@@H](C)C(=O)N1CCC[C@H]1C(=O)N1CCC[C@H]1C(=O)N1CCC[C@H]1C(=O)N[C@@H](CO)C(N)=O)C(C)C` [Compound 167] ({Isobutyryl(2-(3-CN-5-F-Ph))-βAla}-EGTFTSDK([AEEA-AEEA-γGlu-C20 diacid])SIYLDKQAA[Aib]EFVNWLLAGGPSSGAPPPS-NH2), the EC50 was above 1000 nM at GIP receptor [1], above 1000 nM on GLP-1 receptor [2], 0.1 to 1 nM at GLP-1 receptor [3] and 10 to 100 nM at GIP receptor [4]. The Emax amounted to 108% at GLP-1 receptor [3] and 91% on GIP receptor [4].

Regarding `CC[C@H](C)[C@H](NC(=O)[C@H](CC(C)C)NC(=O)[C@H](Cc1c[nH]c2ccccc12)NC(=O)[C@H](CCC(N)=O)NC(=O)[C@@H](NC(=O)[C@H](Cc1ccccc1)NC(=O)[C@H](C)NC(=O)[C@H](CCCCNC(=O)COCCOCCNC(=O)COCCOCCNC(=O)CC[C@H](NC(=O)CCCCCCCCCCCCCCCCCCC(=O)O)C(=O)O)NC(=O)[C@H](CCC(N)=O)NC(=O)[C@H](C)NC(=O)[C@@H](NC(=O)[C@H](CCCCN)NC(=O)[C@H](CC(=O)O)NC(=O)[C@H](CC(C)C)NC(=O)C(C)(C)NC(=O)[C@@H](NC(=O)[C@H](CO)NC(=O)[C@H](Cc1ccc(O)cc1)NC(=O)[C@H](CC(=O)O)NC(=O)[C@H](CO)NC(=O)[C@@H](NC(=O)[C@H](Cc1ccccc1)NC(=O)[C@@H](NC(=O)CNC(=O)[C@H](CCC(=O)O)NC(=O)CCNC(=O)C(CC)(CC)c1ccc(Cl)cc1)[C@@H](C)O)[C@@H](C)O)[C@@H](C)CC)[C@@H](C)CC)C(C)C)C(=O)N[C@@H](C)C(=O)NCC(=O)NCC(=O)N1CCC[C@H]1C(=O)N[C@@H](CO)C(=O)N[C@@H](CO)C(=O)NCC(=O)N[C@@H](C)C(=O)N1CCC[C@H]1C(=O)N1CCC[C@H]1C(=O)N1CCC[C@H]1C(=O)N[C@@H](CO)C(N)=O` [Compound 176] ({X39-βAla}-EGTFTSDYSI[Aib]LDKIAQK([AEEA-AEEA-γGlu-C20 diacid])AFVQWLIAGGPSSGAPPPS-NH2), the EC50 at GIP receptor [1] was below 1000 nM; on GLP-1 receptor [2], above 1000 nM; on GLP-1 receptor [3], 1 to 10 nM; at GIP receptor [4], 1 to 10 nM. Besides, the Emax at GLP-1 receptor [3] and at GIP receptor [4] was 110% in each case.

As for `CC[C@H](C)[C@H](NC(=O)[C@H](CC(C)C)NC(=O)[C@H](Cc1c[nH]c2ccccc12)NC(=O)[C@H](CCC(N)=O)NC(=O)[C@@H](NC(=O)[C@H](Cc1ccccc1)NC(=O)[C@H](C)NC(=O)[C@H](CCCCNC(=O)COCCOCCNC(=O)COCCOCCNC(=O)CC[C@H](NC(=O)CCCCCCCCCCCCCCCCCCC(=O)O)C(=O)O)NC(=O)[C@H](CCC(N)=O)NC(=O)[C@H](C)NC(=O)[C@@H](NC(=O)[C@H](CCCCN)NC(=O)[C@H](CC(=O)O)NC(=O)[C@H](CC(C)C)NC(=O)C(C)(C)NC(=O)[C@@H](NC(=O)[C@H](CO)NC(=O)[C@H](Cc1ccc(O)cc1)NC(=O)[C@H](CC(=O)O)NC(=O)[C@H](CO)NC(=O)[C@@H](NC(=O)[C@H](Cc1ccccc1)NC(=O)[C@@H](NC(=O)CNC(=O)[C@H](CCC(=O)O)NC(=O)CCNC(=O)C(C)c1cc(F)cc(F)c1)[C@@H](C)O)[C@@H](C)O)[C@@H](C)CC)[C@@H](C)CC)C(C)C)C(=O)N[C@@H](C)C(=O)NCC(=O)NCC(=O)N1CCC[C@H]1C(=O)N[C@@H](CO)C(=O)N[C@@H](CO)C(=O)NCC(=O)N[C@@H](C)C(=O)N1CCC[C@H]1C(=O)N1CCC[C@H]1C(=O)N1CCC[C@H]1C(=O)N[C@@H](CO)C(N)=O` (stereo partly drawn) [Compound 216] ({X77-βAla}-EGTFTSDYSI[Aib]LDKIAQK([AEEA-AEEA-γGlu-C20 diacid])AFVQWLIAGGPSSGAPPPS-NH2), the EC50 on GIP receptor [1] was above 1000 nM; on GLP-1 receptor [2] it was above 1000 nM; on GLP-1 receptor [3], 0.1 to 1 nM; on GIP receptor [4], 10 to 100 nM. Moreover, the Emax turned out to be 102% on GLP-1 receptor [3] and 93% at GIP receptor [4].

Turning to `CC[C@H](C)[C@H](NC(=O)[C@H](CC(C)C)NC(=O)[C@H](Cc1c[nH]c2ccccc12)NC(=O)[C@H](CCC(N)=O)NC(=O)[C@@H](NC(=O)[C@H](Cc1ccccc1)NC(=O)[C@H](C)NC(=O)[C@H](CCCCNC(=O)COCCOCCNC(=O)COCCOCCNC(=O)CC[C@H](NC(=O)CCCCCCCCCCCCCCCCCCC(=O)O)C(=O)O)NC(=O)[C@H](CCC(N)=O)NC(=O)[C@H](C)NC(=O)[C@@H](NC(=O)[C@H](CCCCN)NC(=O)[C@H](CC(=O)O)NC(=O)[C@H](CC(C)C)NC(=O)C(C)(C)NC(=O)[C@@H](NC(=O)[C@H](CO)NC(=O)[C@H](Cc1ccc(O)cc1)NC(=O)[C@H](CC(=O)O)NC(=O)[C@H](CO)NC(=O)[C@@H](NC(=O)[C@](C)(Cc1ccccc1F)NC(=O)[C@@H](NC(=O)CNC(=O)[C@H](CCC(=O)O)NC(=O)CCNC(=O)C1(c2cccnc2)CCCC1)[C@@H](C)O)[C@@H](C)O)[C@@H](C)CC)[C@@H](C)CC)C(C)C)C(=O)N[C@@H](C)C(=O)NCC(=O)NCC(=O)N1CCC[C@H]1C(=O)N[C@@H](CO)C(=O)N[C@@H](CO)C(=O)NCC(=O)N[C@@H](C)C(=O)N1CCC[C@H]1C(=O)N1CCC[C@H]1C(=O)N1CCC[C@H]1C(=O)N[C@@H](CO)C(N)=O` [Compound 246] ({X60-βAla}-EGT[αMePhe(2-F)]TSDYSI[Aib]LDKIAQK([AEEA-AEEA-γGlu-C20 diacid])AFVQWLIAGGPSSGAPPPS-NH2), the EC50 was below 1000 nM at GIP receptor [1], below 1000 nM on GLP-1 receptor [2], 0.1 to 1 nM at GLP-1 receptor [3] and 0.1 to 1 nM on GIP receptor [4]. The Emax on GLP-1 receptor [3] is 130%; on GIP receptor [4], 100%.

As to `CC[C@H](C)[C@H](NC(=O)[C@H](CC(C)C)NC(=O)[C@H](Cc1c[nH]c2ccccc12)NC(=O)[C@H](CCC(N)=O)NC(=O)[C@@H](NC(=O)[C@H](Cc1ccccc1)NC(=O)[C@H](C)NC(=O)[C@H](CCCCNC(=O)COCCOCCNC(=O)COCCOCCNC(=O)CC[C@H](NC(=O)CCCCCCCCCCCCCCCCCCC(=O)O)C(=O)O)NC(=O)[C@H](CCC(N)=O)NC(=O)[C@H](C)NC(=O)[C@@H](NC(=O)[C@H](CCCCN)NC(=O)[C@H](CC(=O)O)NC(=O)[C@H](CC(C)C)NC(=O)C(C)(C)NC(=O)[C@@H](NC(=O)[C@H](CO)NC(=O)[C@H](Cc1ccc(O)cc1)NC(=O)[C@H](CC(=O)O)NC(=O)[C@H](CO)NC(=O)[C@@H](NC(=O)[C@H](Cc1ccccc1)NC(=O)[C@@H](NC(=O)CNC(=O)[C@@H](CC(=O)O)NC(=O)CCCNC(=O)C(C)(C)c1cc(F)cc(C#N)c1)[C@@H](C)O)[C@@H](C)O)[C@@H](C)CC)[C@@H](C)CC)C(C)C)C(=O)N[C@@H](C)C(=O)NCC(=O)NCC(=O)N1CCC[C@H]1C(=O)N[C@@H](CO)C(=O)N[C@@H](CO)C(=O)NCC(=O)N[C@@H](C)C(=O)N1CCC[C@H]1C(=O)N1CCC[C@H]1C(=O)N1CCC[C@H]1C(=O)N[C@@H](CO)C(N)=O` [Compound 120] ({Isobutyryl(2-(3-CN-5-F-Ph))-GABA}-[dD]GTFTSDYSI[Aib]LDKIAQK([AEEA-AEEA-γGlu-C20 diacid])AFVQWLIAGGPSSGAPPPS-NH2), the EC50 was above 1000 nM on GIP receptor [1], above 1000 nM on GLP-1 receptor [2], 10 to 100 nM on GLP-1 receptor [3] and 100 to 1000 nM at GIP receptor [4]. The Emax is 104% on GLP-1 receptor [3] and 40% at GIP receptor [4].
